Where two headings read alike, the source gives them in different places.
How the values were obtained:
2′-deoxyguanosine (dG) [1] = assay: 8OHdG produced from dG in presence of potassium bromate as active oxygen generator (Example 8); format: biochemical; conditions: with KBrO3, ultrapure water 2.699
2′-deoxyguanosine (dG) [2] = conditions: KBrO3 30 minutes; for dG: pure water ctrl 1.067; for 8OHdG/dG × 10^−3: pure water ctrl 3.542; for 8OHdG × 10^−3: pure water ctrl 3.779; for Relative initial magnification: pure water ctrl 13.47
2′-deoxyguanosine (dG) [3] = assay: 8OHdG produced from added dG, standing at room temperature or UV irradiation (Examples 1-7); conditions: for evaluation in words: oxidation induction or antioxidant ability toward dG: conclusions of Examples 2-7; for 8OHdG concentration, 90 Minutes' UV irradiation: ultrapure water 0.529; for concentration at which oxidation injury activity due to UV light is elevated (harmfulness increased): Example 1, 90 minutes UV;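 for all read-outs here: Cell-free test: dG in test solution, held at room temperature or exposed to 254 nm UV, then 8OHdG quantified by HPLC with electrochemical detection, compared against dG in ultrapure water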
Experimental: Separately, the amount of 8OHdG after an ultrapure water solution of dG is left to stand under the same conditions as above for a predetermined time is measured (this value is defined as B). If A is greater than B, the test substance is evaluated to have oxidation induction ability and conversely if A is smaller than B, the test substance is evaluated to have antioxidant ability. In either case, it is judged that the greater the difference is, the greater degree of oxidation induction ability or antioxidant capability the test substance has.
Then, 20 μl of 200 μg/ml dG (dissolved in ultrapure water) was added to each well and one of the plates was left to stand as it was at room temperature for 90 minutes and the other plate was irradiated with UV light (254 nm, 860 μW/cm^2) for 90 minutes in a UV light irradiation box. […] Subsequently, nucleosides in the both were quantified by use of the UV light absorption analyzer connected to the HPLC and the electrochemical detector.
Solutions of predetermined concentrations of vitamin C (VC), vitamin E (VE), catechin (Cate) and tannic acid (Tan) were prepared and 180 μl portions were injected into each well of two 99-well plastic plates. Then, 20 μl of 200 μg/ml dG (dissolved in ultrapure water) was added to each well and one of the plates was left to stand as it was at room temperature for 90 minutes and the other plate was irradiated with UV light (254 nm, 860 μW/cm^2) for 90 minutes in a UV light irradiation box.
Then, 20 μl of 200 μg/ml dG (dissolved in ultrapure water) was added to each well and one of the plates was left to stand as it was at room temperature for 90 minutes and another plate was left to stand similarly at room temperature for 24 hours. The remaining three plates were irradiated with UV light (254 nm, 860 μW/cm^2) for 60 minutes, 90 minutes and 120 minutes, respectively, in a UV light irradiation box.
Solutions of predetermined concentrations of glucose (Glu), raffinose (Raffi) and sucrose (Suc) were prepared and 180 μl portions thereof were injected into each well of four 99-well plastic plates. Then, 20 μl of 200 μg/ml dG (dissolved in ultrapure water) was added to each well and one of the plates was left to stand as it was at room temperature for 90 minutes. The remaining three plates were irradiated with UV light (254 nm, 860 μW/cm^2) for 60 minutes, 90 minutes and 120 minutes, respectively, in a UV light irradiation box.
Then, 20 μl of 200 μg/ml dG (dissolved in ultrapure water) was added to each well and one of the plates was left to stand as it was at room temperature for 90 minutes and the other plate was irradiated with UV light (254 nm, 860 μW/cm^2) for 90 minutes in a UV light irradiation box.
Solutions of various concentrations of uric acid (dissolving fluid: distilled water+0.025% FBS) were prepared and 180 μl portions thereof were injected into each well of two 99-well plastic plates. Then, 20 μl of 200 μg/ml dG (dissolved in ultrapure water) was added to each well and one of the plates was left to stand as it was at room temperature for 90 minutes and the other plate was irradiated with UV light (254 nm, 860 μW/cm^2) for 90 minutes in a UV light irradiation box.

[4] = cited from earlier work
2′-deoxyguanosine (dG) [5] = assay: 8OHdG produced from dG with test substance and coexisting bisphenol A, standing or UV (Example 9); format: biochemical; conditions: for 8OHdG concentration, 90 Minutes' standing: ultrapure water 0.21; for 8OHdG concentration, 90 Minutes' UV irradiation: ultrapure water 0.64
Experimental: 170 μl portions of ultrapure water and predetermined concentrations of vitamin C (VC), vitamin E (VE), and glucose (Glu) as test substance were added to each well of two […] plastic plates and, as additional solution, 20 μl of ultrapure water or predetermined concentration of bisphenol A (BPA) were injected into each well.

[6] = 5%, Table 3, ultrapure water 0.382
[7] = 20%, Table 3, ultrapure water 0.382
[8] = 0.005 ppm, Table 1, ultrapure water 0.267
[9] = 0.5 ppm, Table 1, ultrapure water 0.267
[10] = 5 ppm, Table 1, ultrapure water 0.267
[11] = BPA 0.5 ppm added to ultrapure water
[12] = BPA 5 ppm added to ultrapure water
[13] = BPA 50 ppm added to ultrapure water

CO [Meth, methanol]
8OHdG concentration, 30 Minutes' standing (2′-deoxyguanosine (dG) [1]; 1%): 2.059 ng/mL | 8OHdG concentration, 30 Minutes' standing (2′-deoxyguanosine (dG) [1]; 2.5%): 1.685 ng/mL | dG (2′-deoxyguanosine (dG) [2]; 1%): 1.04 VS | 8OHdG/dG × 10^−3 (2′-deoxyguanosine (dG) [2]; 1%): 2.771 × 10^−3 | dG (2′-deoxyguanosine (dG) [2]; 5%): 1.054 VS | 8OHdG/dG × 10^−3 (2′-deoxyguanosine (dG) [2]; 5%): 2.238 × 10^−3 | 8OHdG × 10^−3 (2′-deoxyguanosine (dG) [2]; 5%): 2.359 mVs | 8OHdG concentration, UV irradiation 60 minutes (2′-deoxyguanosine (dG) [3]; 5%, Table 3, ultrapure water 0.231): 0.181 ng/mL | 8OHdG concentration, Standing 24 hours (2′-deoxyguanosine (dG) [3]; [6]): 0.336 ng/mL | 8OHdG concentration, UV irradiation 90 minutes (2′-deoxyguanosine (dG) [3]; [6]): 0.209 ng/mL | 8OHdG concentration, UV irradiation 120 minutes (2′-deoxyguanosine (dG) [3]; 5%, Table 3, ultrapure water 0.645): 0.332 ng/mL | 8OHdG concentration, UV irradiation 60 minutes (2′-deoxyguanosine (dG) [3]; 20%, Table 3, ultrapure water 0.231): 0.324 ng/mL | 8OHdG concentration, Standing 24 hours (2′-deoxyguanosine (dG) [3]; [7]): 0.274 ng/mL | 8OHdG concentration, UV irradiation 90 minutes (2′-deoxyguanosine (dG) [3]; [7]): 0.395 ng/mL | 8OHdG concentration, UV irradiation 120 minutes (2′-deoxyguanosine (dG) [3]; 20%, Table 3, ultrapure water 0.645): 0.518 ng/mL | evaluation in words: oxidation induction or antioxidant ability toward dG (2′-deoxyguanosine (dG) [3]): potent antioxidant ability

Oc1c(Cl)c(Cl)c(Cl)c(Cl)c1Cl [PCP, pentachlorophenol]
safety concentration ([4]; reported): 5 mg/kg | 8OHdG concentration, 90 Minutes' standing (2′-deoxyguanosine (dG) [3]; 0.0005 ppm, Table 1, ultrapure water 0.267): 0.260 ng/mL | 8OHdG concentration, 90 Minutes' UV irradiation (2′-deoxyguanosine (dG) [3]; 0.0005 ppm, Table 1): 0.585 ng/mL | 8OHdG concentration, 90 Minutes' standing (2′-deoxyguanosine (dG) [3]; [8]): 0.236 ng/mL | 8OHdG concentration, 90 Minutes' UV irradiation (2′-deoxyguanosine (dG) [3]; 0.005 ppm, Table 1): 0.451 ng/mL | 8OHdG concentration, 90 Minutes' standing (2′-deoxyguanosine (dG) [3]; 0.05 ppm, Table 1, ultrapure water 0.267): 0.285 ng/mL | 8OHdG concentration, 90 Minutes' UV irradiation (2′-deoxyguanosine (dG) [3]; 0.05 ppm, Table 1): 0.431 ng/mL | 8OHdG concentration, 90 Minutes' standing (2′-deoxyguanosine (dG) [3]; [9]): 0.282 ng/mL | 8OHdG concentration, 90 Minutes' UV irradiation (2′-deoxyguanosine (dG) [3]; 0.5 ppm, Table 1): 0.396 ng/mL | 8OHdG concentration, 90 Minutes' standing (2′-deoxyguanosine (dG) [3]; [10]): 0.340 ng/mL | 8OHdG concentration, 90 Minutes' UV irradiation (2′-deoxyguanosine (dG) [3]; 5 ppm, Table 1): 5.730 ng/mL | concentration at which oxidation injury activity due to UV light is elevated (harmfulness increased) (2′-deoxyguanosine (dG) [3]): 5 ppm

OC[C@H]1O[C@H](OC[C@H]2O[C@H](O[C@]3(CO)O[C@H](CO)[C@@H](O)[C@@H]3O)[C@H](O)[C@@H](O)[C@@H]2O)[C@H](O)[C@@H](O)[C@H]1O [Raffi, raffinose]
dG (2′-deoxyguanosine (dG) [2]; 1 mg/ml): 0.926 VS | 8OHdG/dG × 10^−3 (2′-deoxyguanosine (dG) [2]; 1 mg/ml): 2.513 × 10^−3 | 8OHdG × 10^−3 (2′-deoxyguanosine (dG) [2]; 1 mg/ml): 2.327 mVs | Relative initial magnification (2′-deoxyguanosine (dG) [2]; 1 mg/ml): 9.55 times | dG (2′-deoxyguanosine (dG) [2]; 10 mg/ml): 1.045 VS | 8OHdG/dG × 10^−3 (2′-deoxyguanosine (dG) [2]; 10 mg/ml): 3.137 × 10^−3 | 8OHdG × 10^−3 (2′-deoxyguanosine (dG) [2]; 10 mg/ml): 3.278 mVs | Relative initial magnification (2′-deoxyguanosine (dG) [2]; 10 mg/ml): 11.93 times | 8OHdG concentration, 90 Minutes' standing (2′-deoxyguanosine (dG) [3]; 0.1 μg/ml, Table 4, ultrapure water 0.195): 0.205 ng/mL | 8OHdG concentration, UV irradiation 60 minutes (2′-deoxyguanosine (dG) [3]; 0.1 μg/ml, Table 4, ultrapure water 0.392): 0.375 ng/mL | 8OHdG concentration, UV irradiation 90 minutes (2′-deoxyguanosine (dG) [3]; 0.1 μg/ml, Table 4, ultrapure water 0.901): 0.689 ng/mL | 8OHdG concentration, UV irradiation 120 minutes (2′-deoxyguanosine (dG) [3]; 0.1 μg/ml, Table 4, ultrapure water 1.183): 1.127 ng/mL | 8OHdG concentration, 90 Minutes' standing (2′-deoxyguanosine (dG) [3]; 1 μg/ml, Table 4, ultrapure water 0.195): 0.185 ng/mL | 8OHdG concentration, UV irradiation 60 minutes (2′-deoxyguanosine (dG) [3]; 1 μg/ml, Table 4, ultrapure water 0.392): 0.304 ng/mL | 8OHdG concentration, UV irradiation 90 minutes (2′-deoxyguanosine (dG) [3]; 1 μg/ml, Table 4, ultrapure water 0.901): 0.854 ng/mL | 8OHdG concentration, UV irradiation 120 minutes (2′-deoxyguanosine (dG) [3]; 1 μg/ml, Table 4, ultrapure water 1.183): 1.049 ng/mL | 8OHdG concentration, 90 Minutes' standing (2′-deoxyguanosine (dG) [3]; 10 μg/ml, Table 4, ultrapure water 0.195): 0.405 ng/mL | 8OHdG concentration, UV irradiation 60 minutes (2′-deoxyguanosine (dG) [3]; 10 μg/ml, Table 4, ultrapure water 0.392): 0.281 ng/mL | 8OHdG concentration, UV irradiation 90 minutes (2′-deoxyguanosine (dG) [3]; 10 μg/ml, Table 4, ultrapure water 0.901): 0.626 ng/mL | 8OHdG concentration, UV irradiation 120 minutes (2′-deoxyguanosine (dG) [3]; 10 μg/ml, Table 4, ultrapure water 1.183): 1.314 ng/mL | 8OHdG concentration, 90 Minutes' standing (2′-deoxyguanosine (dG) [3]; 100 μg/ml, Table 4, ultrapure water 0.195): 0.455 ng/mL | 8OHdG concentration, UV irradiation 60 minutes (2′-deoxyguanosine (dG) [3]; 100 μg/ml, Table 4, ultrapure water 0.392): 0.158 ng/mL | 8OHdG concentration, UV irradiation 90 minutes (2′-deoxyguanosine (dG) [3]; 100 μg/ml, Table 4, ultrapure water 0.901): 0.370 ng/mL | 8OHdG concentration, UV irradiation 120 minutes (2′-deoxyguanosine (dG) [3]; 100 μg/ml, Table 4, ultrapure water 1.183): 0.503 ng/mL | 8OHdG concentration, 90 Minutes' standing (2′-deoxyguanosine (dG) [3]; 1 mg/ml, Table 4, ultrapure water 0.195): 0.340 ng/mL | 8OHdG concentration, UV irradiation 60 minutes (2′-deoxyguanosine (dG) [3]; 1 mg/ml, Table 4, ultrapure water 0.392): 0.115 ng/mL | 8OHdG concentration, UV irradiation 90 minutes (2′-deoxyguanosine (dG) [3]; 1 mg/ml, Table 4, ultrapure water 0.901): 0.176 ng/mL | 8OHdG concentration, UV irradiation 120 minutes (2′-deoxyguanosine (dG) [3]; 1 mg/ml, Table 4, ultrapure water 1.183): 0.240 ng/mL | concentration at which antioxidant ability is effective (2′-deoxyguanosine (dG) [3]; Example 4): ≥ 10 µg/mL | evaluation in words: oxidation induction or antioxidant ability toward dG (2′-deoxyguanosine (dG) [3]): Glu>Raffi≈Suc

O=C([O-])CN(CCN(CC(=O)[O-])CC(=O)[O-])CC(=O)[O-].[Na+].[Na+].[Na+].[Na+] [EDTA, sodium ethylenediaminetetraacetate]
8OHdG concentration, 30 Minutes' standing (2′-deoxyguanosine (dG) [1]; 1 mM): 0.784 ng/mL | dG (2′-deoxyguanosine (dG) [2]; 1 mM): 0.997 VS | 8OHdG/dG × 10^−3 (2′-deoxyguanosine (dG) [2]; 1 mM): 1.101 × 10^−3 | 8OHdG × 10^−3 (2′-deoxyguanosine (dG) [2]; 1 mM): 1.098 mVs | Relative initial magnification (2′-deoxyguanosine (dG) [2]; 1 mM): 4.19 times

OCC(O)CO [Gly, glycerol]
8OHdG concentration, 30 Minutes' standing (2′-deoxyguanosine (dG) [1]; 10%): 1.123 ng/mL | dG (2′-deoxyguanosine (dG) [2]; 10%): 1.044 VS | 8OHdG/dG × 10^−3 (2′-deoxyguanosine (dG) [2]; 10%): 1.506 × 10^−3 | 8OHdG × 10^−3 (2′-deoxyguanosine (dG) [2]; 10%): 1.572 mVs

CC(C)(c1ccc(O)cc1)c1ccc(O)cc1 [BPA, bisphenol A]
8OHdG concentration, 90 Minutes' standing (2′-deoxyguanosine (dG) [5]; [11]): 0.19 ng/mL | 8OHdG concentration, 90 Minutes' UV irradiation (2′-deoxyguanosine (dG) [5]; [11]): 2.09 ng/mL | 8OHdG concentration, 90 Minutes' standing (2′-deoxyguanosine (dG) [5]; [12]): 0.31 ng/mL | 8OHdG concentration, 90 Minutes' UV irradiation (2′-deoxyguanosine (dG) [5]; [12]): 6.19 ng/mL | 8OHdG concentration, 90 Minutes' standing (2′-deoxyguanosine (dG) [5]; [13]): 0.22 ng/mL | 8OHdG concentration, 90 Minutes' UV irradiation (2′-deoxyguanosine (dG) [5]; [13]): 11.58 ng/mL | effect on 8OHdG with BPA and UV light irradiation (2′-deoxyguanosine (dG) [5]; Example 9): increases depending on concentration | Acceptable uptake amount ([4]; common in every country): 0.05 mg/kg/day | 8OHdG concentration, 90 Minutes' UV irradiation (2′-deoxyguanosine (dG) [3]; 0.0005 ppm, Table 1): 0.689 ng/mL | 8OHdG concentration, 90 Minutes' standing (2′-deoxyguanosine (dG) [3]; [8]): 0.315 ng/mL | 8OHdG concentration, 90 Minutes' UV irradiation (2′-deoxyguanosine (dG) [3]; 0.005 ppm, Table 1): 0.794 ng/mL | 8OHdG concentration, 90 Minutes' UV irradiation (2′-deoxyguanosine (dG) [3]; 0.05 ppm, Table 1): 0.614 ng/mL | 8OHdG concentration, 90 Minutes' standing (2′-deoxyguanosine (dG) [3]; [9]): 0.231 ng/mL | 8OHdG concentration, 90 Minutes' UV irradiation (2′-deoxyguanosine (dG) [3]; 0.5 ppm, Table 1): 1.736 ng/mL | 8OHdG concentration, 90 Minutes' standing (2′-deoxyguanosine (dG) [3]; [10]): 0.192 ng/mL | 8OHdG concentration, 90 Minutes' UV irradiation (2′-deoxyguanosine (dG) [3]; 5 ppm, Table 1): 7.142 ng/mL | concentration at which oxidation injury activity due to UV light is elevated (harmfulness increased) (2′-deoxyguanosine (dG) [3]): ≥ 0.5 ppm
